From PubChem BioAssay AID248 (DTP/NCI, 2004)
Several values for one entry are separate records, joined by “and”; a condition that tells them apart may be missing. Equal values may be shown once. Toxic doses and inconclusive results are not listed. Rule as the data show it: active = T/C of 150% or more; inactive = T/C below 125%.

Tested on: L1210 leukemia ip in BDF1 mice, survival T/C
Assay: NCI In Vivo Anticancer Drug Screen. Data for tumor model L1210 Leukemia (intraperitoneal) in B6D2F1 (BDF1) mice
Details: endpoint: mean survival time, higher = longer survival
Outline: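 Antitumor effect is assessed in tumor-bearing animals. Survival in the compound arm is compared with a vehicle-dosed control arm and expressed as their quotient.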

[1] = dose: 100.0 mg/kg/injection, schedule: Q01DX009 (ip), vehicle: Klucel (hydroxypropylcellulose) (HPC)
[2] = dose: 200.0 mg/kg/injection, schedule: Q01DX009 (ip), vehicle: Klucel (hydroxypropylcellulose) (HPC)
[3] = dose: 400.0 mg/kg/injection, schedule: Q01DX009 (ip), vehicle: Klucel (hydroxypropylcellulose) (HPC)
[4] = dose: 100.0 mg/kg/injection, schedule: Q01DX001 (ip), vehicle: carboxymethylcellulose (CMC)
[5] = dose: 200.0 mg/kg/injection, schedule: Q01DX001 (ip), vehicle: carboxymethylcellulose (CMC)
[6] = dose: 400.0 mg/kg/injection, schedule: Q01DX001 (ip), vehicle: carboxymethylcellulose (CMC)
[7] = dose: 100.0 mg/kg/injection, schedule: Q01DX001 (ip), vehicle: saline
[8] = dose: 200.0 mg/kg/injection, schedule: Q01DX001 (ip), vehicle: saline
[9] = dose: 400.0 mg/kg/injection, schedule: Q01DX001 (ip), vehicle: saline

Measured: T/C

CC12CCC(O)CC1=CCC1C2CCC2(C)C(C(O)CC(O)(C(F)(F)F)C(F)(F)F)CCC12 (centres undefined)
inactive: dose: 100.0 mg/kg/injection, schedule: Q04DX003 (ip), vehicle: saline with Tween-80 92 % of control | dose: 200.0 mg/kg/injection, schedule: Q04DX003 (ip), vehicle: saline with Tween-80 93 % of control | dose: 400.0 mg/kg/injection, schedule: Q04DX003 (ip), vehicle: saline with Tween-80 93 % of control

CCOC(=O)C1C(=O)C(C(=O)Nc2ccccc2)C(=O)C(C(=O)OCC)C1c1ccc(OC(C)=O)cc1 (centres undefined)
inactive: dose: 50.0 mg/kg/injection, schedule: Q01DX001 (ip), vehicle: saline with Tween-80 94 % of control | dose: 100.0 mg/kg/injection, schedule: Q01DX001 (ip), vehicle: saline with Tween-80 100 % of control | dose: 200.0 mg/kg/injection, schedule: Q01DX001 (ip), vehicle: saline with Tween-80 96 % of control

CN(C)N=Nc1ccc(C(=O)N/N=C/c2ccc([N+](=O)[O-])cc2)cc1
inactive: dose: 100.0 mg/kg/injection, schedule: Q04DX002 (ip), vehicle: saline with Tween-80 100 % of control | dose: 200.0 mg/kg/injection, schedule: Q04DX002 (ip), vehicle: saline with Tween-80 94 % of control | dose: 400.0 mg/kg/injection, schedule: Q04DX002 (ip), vehicle: saline with Tween-80 99 % of control

COc1ccc(OC)c(NC(=S)N/N=C(/C)c2cc([N+](=O)[O-])c(O)cc2O)c1
inactive: dose: 12.5 mg/kg/injection, schedule: Q04DX002 (ip), vehicle: Klucel (hydroxypropylcellulose) (HPC) 102 % of control | dose: 25.0 mg/kg/injection, schedule: Q04DX002 (ip), vehicle: Klucel (hydroxypropylcellulose) (HPC) 102 % of control | dose: 50.0 mg/kg/injection, schedule: Q04DX002 (ip), vehicle: Klucel (hydroxypropylcellulose) (HPC) 105 % of control

CCCCCCCCCCOc1ccc(C=Nc2ccc(CC)cc2)cc1
inactive: [1] 103 % of control | [2] 90 % of control | [3] 93 % of control

C=C(C)COC(=O)Nc1cccc(O)c1
inactive: dose: 100.0 mg/kg/injection, schedule: Q01DX001 (ip), vehicle: saline + alcohol 96 % of control | dose: 200.0 mg/kg/injection, schedule: Q01DX001 (ip), vehicle: saline + alcohol 96 % of control

COc1ccc(N2CCN(c3c(N)cnc4ccccc34)CC2)c(OC)c1
inactive: [4] 97 % of control | [5] 103 % of control | [6] 97 % of control

CCOC(=O)C1C2CCCCC21 (centres undefined)
inactive: [7] 102 % of control | [8] 96 % of control

CCSC(C(O)C(O)C(O)CO)n1ccc(N)nc1=O (centres undefined)
inactive: dose: 100.0 mg/kg/injection, schedule: Q01DX005 (ip), vehicle: saline 101 % of control and 104 % of control | dose: 100.0 mg/kg/injection, schedule: Q01DX009 (ip), vehicle: saline 106 % of control and 109 % of control | dose: 200.0 mg/kg/injection, schedule: Q01DX005 (ip), vehicle: saline 95 % of control and 98 % of control and 101 % of control | dose: 200.0 mg/kg/injection, schedule: Q01DX009 (ip), vehicle: saline 106 % of control and 98 % of control | dose: 400.0 mg/kg/injection, schedule: Q01DX009 (ip), vehicle: saline 112 % of control and 102 % of control

NC(=NC1CCCCC1)c1ccc(C(=O)OCc2ccccc2)cc1
inactive: [4] 94 % of control | [5] 89 % of control | [6] 94 % of control

CCCCCC(=C/c1ccccc1)/C=N/NC(=O)c1ccc[n+](C)c1
inactive: dose: 50.0 mg/kg/injection, schedule: Q01DX009 (ip), vehicle: Klucel (hydroxypropylcellulose) (HPC) 90 % of control | [1] 98 % of control

O=C(O)C(CCC(C(=O)O)c1ccccc1)c1ccccc1 (centres undefined)
inactive: dose: 75.0 mg/kg/injection, schedule: Q01DX001 (ip), vehicle: other 110 % of control | dose: 150.0 mg/kg/injection, schedule: Q01DX001 (ip), vehicle: other 116 % of control | dose: 300.0 mg/kg/injection, schedule: Q01DX001 (ip), vehicle: other 95 % of control

CS(=O)(=O)OCCCOS(C)(=O)=O
inactive: dose: 9.37 mg/kg/injection, schedule: Q01DX009 (ip), vehicle: Klucel (hydroxypropylcellulose) (HPC) 101 % of control | dose: 18.75 mg/kg/injection, schedule: Q01DX009 (ip), vehicle: Klucel (hydroxypropylcellulose) (HPC) 102 % of control | dose: 37.5 mg/kg/injection, schedule: Q01DX009 (ip), vehicle: Klucel (hydroxypropylcellulose) (HPC) 106 % of control | dose: 75.0 mg/kg/injection, schedule: Q01DX009 (ip), vehicle: Klucel (hydroxypropylcellulose) (HPC) 116 % of control | dose: 150.0 mg/kg/injection, schedule: Q01DX009 (ip), vehicle: Klucel (hydroxypropylcellulose) (HPC) 90 % of control

CC(C)c1cc[n+](/C(C(=S)Nc2ccccc2Cl)=C(/[O-])c2ccc([N+](=O)[O-])cc2)cc1
inactive: [1] 94 % of control | [2] 97 % of control | [3] 96 % of control

CN(C)CC(=O)NCCCCCCCCCCNC(=O)CN(C)C
inactive: dose: 10.0 mg/kg/injection, schedule: Q01DX Z (ip), vehicle: saline 88 % of control | dose: 30.0 mg/kg/injection, schedule: Q01DX Z (ip), vehicle: saline 96 % of control | dose: 100.0 mg/kg/injection, schedule: Q01DX Z (ip), vehicle: saline 97 % of control | dose: 300.0 mg/kg/injection, schedule: Q01DX Z (ip), vehicle: saline 102 % of control

Cc1nc(N)[nH]c(=O)c1/C=C\C(=O)c1ccccc1
inactive: dose: 30.0 mg/kg/injection, schedule: Q01DX Z (ip), vehicle: carboxymethylcellulose (CMC) 96 % of control | dose: 60.0 mg/kg/injection, schedule: Q01DX Z (ip), vehicle: carboxymethylcellulose (CMC) 96 % of control | [4] 95 % of control | dose: 120.0 mg/kg/injection, schedule: Q01DX Z (ip), vehicle: carboxymethylcellulose (CMC) 87 % of control | [5] 89 % of control | dose: 240.0 mg/kg/injection, schedule: Q01DX Z (ip), vehicle: carboxymethylcellulose (CMC) 90 % of control | [6] 93 % of control

Cn1cnc([N+](=O)[O-])c1[Se]c1ncnc2c1ncn2C1OC(CO)C(O)C1O (centres undefined)
inactive: dose: 12.5 mg/kg/injection, schedule: Q01DX005 (ip), vehicle: saline 104 % of control | dose: 25.0 mg/kg/injection, schedule: Q01DX005 (ip), vehicle: saline 98 % of control

COc1ccc(C(CC(=O)O)c2ccccc2)cc1 (centres undefined)
inactive: [7] 94 % of control | [8] 93 % of control | [9] 100 % of control

CC(=O)c1cccc(NC(=O)Nc2ccc(Nc3ccccc3)cc2)c1
inactive: dose: 100.0 mg/kg/injection, schedule: Q01DX009 (ip), vehicle: other 103 % of control | dose: 200.0 mg/kg/injection, schedule: Q01DX009 (ip), vehicle: other 101 % of control | dose: 400.0 mg/kg/injection, schedule: Q01DX009 (ip), vehicle: other 93 % of control

Cc1cc(N(CCCl)CCCl)ccc1C=Nc1ccccc1-n1ccnc1C
inactive: dose: 75.0 mg/kg/injection, schedule: Q04DX002 (ip), vehicle: Klucel (hydroxypropylcellulose) (HPC) 98 % of control | dose: 150.0 mg/kg/injection, schedule: Q04DX002 (ip), vehicle: Klucel (hydroxypropylcellulose) (HPC) 98 % of control | dose: 300.0 mg/kg/injection, schedule: Q04DX002 (ip), vehicle: Klucel (hydroxypropylcellulose) (HPC) 98 % of control

COc1cccc(Nc2ccc(C(=O)O)cc2[N+](=O)[O-])c1
inactive: dose: 100.0 mg/kg/injection, schedule: Q04DX003 (ip), vehicle: water 98 % of control | dose: 200.0 mg/kg/injection, schedule: Q04DX003 (ip), vehicle: water 103 % of control | dose: 400.0 mg/kg/injection, schedule: Q04DX003 (ip), vehicle: water 98 % of control

Cc1cc(Cl)ccc1OCC(=O)Nc1cccc(C(F)(F)F)c1
inactive: dose: 100.0 mg/kg/injection, schedule: Q04DX002 (ip), vehicle: saline 103 % of control | dose: 200.0 mg/kg/injection, schedule: Q04DX002 (ip), vehicle: saline 100 % of control | dose: 400.0 mg/kg/injection, schedule: Q04DX002 (ip), vehicle: saline 92 % of control

C1CCC2(CC1)SCCCS2
inactive: [7] 102 % of control | [8] 113 % of control | [9] 110 % of control
